Patent US11702426B2, “Macrocyclic deaza-purinones for the treatment of viral infections” (JANSSEN SCIENCES IRELAND UNLIMITED COMPANY, priority 2013, dated 2023)

Assays:
[1] = biological target: T1, human TLR7 (Homo sapiens, UniProt Q9NYK1); experiment: HEK293 TLR7-NFκB-luc cellular reporter assay; assay type: cell-based; settings: lowest effective concentration; HEK293 transiently transfected with TLR7 and NFκB-luc; 6 hours incubation
T1 construct: expressed in transfected cells; host or cells: HEK293
T1 sequence (Q9NYK1 27-1049): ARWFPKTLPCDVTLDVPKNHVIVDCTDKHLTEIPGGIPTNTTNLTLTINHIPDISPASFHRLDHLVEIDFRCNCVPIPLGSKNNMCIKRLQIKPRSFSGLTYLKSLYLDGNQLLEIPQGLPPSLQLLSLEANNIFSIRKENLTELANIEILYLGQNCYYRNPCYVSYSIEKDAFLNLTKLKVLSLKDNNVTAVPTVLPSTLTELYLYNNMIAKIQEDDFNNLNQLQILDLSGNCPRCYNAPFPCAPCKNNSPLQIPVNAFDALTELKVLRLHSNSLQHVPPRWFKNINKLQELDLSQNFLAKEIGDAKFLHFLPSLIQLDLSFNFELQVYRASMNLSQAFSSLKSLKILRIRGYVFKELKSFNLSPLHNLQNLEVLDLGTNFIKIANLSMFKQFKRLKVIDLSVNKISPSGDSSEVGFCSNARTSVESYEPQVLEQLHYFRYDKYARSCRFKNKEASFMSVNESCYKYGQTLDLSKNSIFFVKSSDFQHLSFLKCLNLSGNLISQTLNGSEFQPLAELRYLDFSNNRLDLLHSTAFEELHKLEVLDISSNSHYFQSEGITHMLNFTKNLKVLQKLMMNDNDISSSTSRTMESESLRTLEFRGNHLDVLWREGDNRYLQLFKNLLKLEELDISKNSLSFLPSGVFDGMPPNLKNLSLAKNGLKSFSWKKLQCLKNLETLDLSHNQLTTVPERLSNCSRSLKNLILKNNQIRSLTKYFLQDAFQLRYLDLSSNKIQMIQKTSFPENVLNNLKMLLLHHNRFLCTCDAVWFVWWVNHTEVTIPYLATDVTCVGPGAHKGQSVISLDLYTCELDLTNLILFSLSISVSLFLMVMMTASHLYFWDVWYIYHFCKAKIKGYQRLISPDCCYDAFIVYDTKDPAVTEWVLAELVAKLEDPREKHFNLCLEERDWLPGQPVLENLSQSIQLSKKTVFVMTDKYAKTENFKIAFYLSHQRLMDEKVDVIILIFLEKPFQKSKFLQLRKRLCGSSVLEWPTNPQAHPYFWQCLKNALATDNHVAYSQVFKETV
Procedure: The ability of compounds to activate human TLR7 and TLR8 was assessed in a cellular reporter assay using HEK293 cells transiently transfected with a TLR7 or TLR8 expression vector and NFκB-luc reporter construct. Briefly, HEK293 cells were grown in culture medium (DMEM supplemented with 10% FCS and 2 mM Glutamine). For transfection of cells in 15 cm dishes, cells were detached with Trypsin-EDTA, transfected with a mix of CMV-TLR7 or TLR8 plasmid (1,700 ng), NFκB-luc plasmid (850 ng) and a transfection reagent and incubated 48 hours at 37° C. in a humidified 5% CO2 atmosphere. Transfected cells were then washed in PBS, detached with Trypsin-EDTA, and resuspended in medium to a density of 1.25×10^5 cells/mL. Forty microliters of cells were then dispensed into each well in 384-well plates, where 200 nL of compound in 100% DMSO was already present. Following 6 hours incubation at 37° C., 5% CO2, the luciferase activity was determined by adding 15 μl of Steady Lite Plus substrate (Perkin Elmer) to each well and readout performed on a ViewLux ultraHTS microplate imager (Perkin Elmer). Dose response curves were generated from measurements performed in quadruplicates. Lowest effective concentrations (LEC) values, defined as the concentration that induces an effect which is at least two fold above the standard deviation of the assay, were determined for each compound.

[2] = system: interferon production in human PBMC; experiment: Interferon production in human PBMC, read out on HEK-ISRE-luc reporter cells; assay type: cell-based; settings: lowest effective concentration, PBMC incubated overnight with compound, supernatant transferred to HEK-ISRE-luc cells; for minimal effective concentration: Homo sapiens, PBMC, 24 h, read-out: PBMC HEK-ISRE-luc (LEC; μM); for PBMC HEK-ISRE-luc (LEC; μM): 24 hours
Procedure: Activation of human TLR7 results in robust production of interferon by plasmacytoid dendritic cells present in human blood. The potential of compounds to induce interferon was evaluated by determination of interferon in the conditioned media from peripheral blood mononuclear cells (PBMC). The presence of interferon in the samples was determined, using an interferon reporter cell line stably expressing an interferon-stimulated responsive elements (ISRE)-luc reporter construct. The ISRE element with sequence TAGTTTCACTTTCCC (SEQ ID NO: 1) is highly responsive to the STAT1-STAT2-IRF9 transcription factor, which becomes activated upon binding of IFN-I to the IFN receptor. Briefly, PBMCs were prepared from buffy coats of at least two donors using a standard Ficoll centrifugation protocol. Isolated PBMCs were resuspended in RPMI medium supplemented with 10% human AB serum and 2×10^5 cells/well were dispensed into 384-well plates containing compounds (70 μL total volume). After overnight incubation of the PBMCs with the compounds, 10 μL of supernatant was transferred to 384-well plates containing 5×10^3 HEK-ISRE-luc cells/well in 30 μL (plated the day before). Following 24 hours of incubation, activation of the ISRE elements was measured by assaying luciferase activity using 40 μL/well Steady Lite Plus substrate (Perkin Elmer) and measured with ViewLux ultraHTS microplate imager (Perkin Elmer). The stimulating activity of each compound on the HEK-ISRE-luc cells was reported as LEC. The LEC in turn indicates the degree of ISRE activation on transfer of a defined amount of PBMC culture medium. Recombinant interferon alfa-2a (Roferon-A) was used as a standard control compound.

SMILES: Nc1nc2cc3c1nc(O)n3Cc1cccc(c1)OC/C=C/CO2 [Compound 1]
- HEK293 TLR7-NFκB-luc (LEC; μM) [1]: 2.88 µM
- minimal effective concentration [2]: 0.3 µM

SMILES: Nc1nc2cc3c1nc(O)n3Cc1cccc(c1)OCCCCO2 [Compound 2]
- HEK293 TLR7-NFκB-luc (LEC; μM) [1]: 4.47 µM
- minimal effective concentration [2]: 0.93 µM

SMILES: Nc1nc2cc3c1nc(O)n3Cc1cccc(c1)C/C=C/CCO2 [Compound 3]
- HEK293 TLR7-NFκB-luc (LEC; μM) [1]: 0.27 µM
- minimal effective concentration [2]: 0.033 µM

SMILES: Nc1nc2cc3c1nc(O)n3Cc1ncccc1OC/C=C/CCO2 [Compound 5]
- HEK293 TLR7-NFκB-luc (LEC; μM) [1]: 2.14 µM
- minimal effective concentration [2]: 0.082 µM

SMILES: Nc1nc2cc3c1nc(O)n3Cc1ncccc1OCCCCCO2 [Compound 6]
- HEK293 TLR7-NFκB-luc (LEC; μM) [1]: 1 µM
- minimal effective concentration [2]: 0.16 µM

SMILES: COc1ccc2cc1OC/C=C/COc1cc3c(nc(O)n3C2)c(N)n1 [Compound 7]
- HEK293 TLR7-NFκB-luc (LEC; μM) [1]: 3.88 µM
- minimal effective concentration [2]: 0.29 µM

SMILES: COc1ccc2cc1OCCCCOc1cc3c(nc(O)n3C2)c(N)n1 [Compound 8]
- HEK293 TLR7-NFκB-luc (LEC; μM) [1]: 7.1 µM
- minimal effective concentration [2]: 0.58 µM

SMILES: Nc1nc2cc3c1nc(O)n3Cc1cccc(c1)CCCCCN2 [Compound 9]
- HEK293 TLR7-NFκB-luc (LEC; μM) [1]: 11.09 µM
- minimal effective concentration [2]: 10.9 µM

SMILES: Nc1nc2cc3c1nc(O)n3Cc1cccc(c1)OC/C=C/CCO2 [Compound 10]
- HEK293 TLR7-NFκB-luc (LEC; μM) [1]: 0.78 µM
- minimal effective concentration [2]: 0.25 µM

SMILES: Nc1nc2cc3c1nc(O)n3Cc1cccc(c1)OC/C=C/CCCO2 [Compound 11]
- HEK293 TLR7-NFκB-luc (LEC; μM) [1]: 1.25 µM
- minimal effective concentration [2]: 0.45 µM

SMILES: COc1cc2cc(c1)OC/C=C/COc1cc3c(nc(O)n3C2)c(N)n1 [Compound 12]
- HEK293 TLR7-NFκB-luc (LEC; μM) [1]: 1.08 µM
- minimal effective concentration [2]: 0.3 µM

SMILES: COc1cc2cc(c1)OCCCCOc1cc3c(nc(O)n3C2)c(N)n1 [Compound 13]
- HEK293 TLR7-NFκB-luc (LEC; μM) [1]: 1.71 µM
- minimal effective concentration [2]: 0.15 µM

SMILES: Nc1nc2cc3c1nc(O)n3Cc1cccc(c1)OCCCCCO2 [Compound 14]
- HEK293 TLR7-NFκB-luc (LEC; μM) [1]: 7.01 µM
- minimal effective concentration [2]: 2.4 µM

SMILES: COc1cc2cc(c1)OC/C=C/CCOc1cc3c(nc(O)n3C2)c(N)n1 [Compound 15]
- HEK293 TLR7-NFκB-luc (LEC; μM) [1]: 0.18 µM
- minimal effective concentration [2]: 0.04 µM

SMILES: Nc1nc2cc3c1nc(O)n3Cc1ccc(F)c(c1)OC/C=C/CO2 [Compound 16]
- HEK293 TLR7-NFκB-luc (LEC; μM) [1]: 2.02 µM
- minimal effective concentration [2]: 0.47 µM

SMILES: Cl.Nc1nc2cc3c1nc(O)n3Cc1ccc(F)c(c1)OC/C=C/CO2 [Compound 17]
- HEK293 TLR7-NFκB-luc (LEC; μM) [1]: 1.88 µM
- PBMC HEK-ISRE-luc (LEC; μM) [2]: 0.39 µM

SMILES: Nc1nc2cc3c1nc(O)n3Cc1cccc(c1)NC/C=C/CO2 [Compound 18]
- HEK293 TLR7-NFκB-luc (LEC; μM) [1]: 8.02 µM
- minimal effective concentration [2]: 1.11 µM

SMILES: Nc1nc2cc3c1nc(O)n3Cc1ccc(F)c(c1)OCCCCCO2 [Compound 19]
- HEK293 TLR7-NFκB-luc (LEC; μM) [1]: 14.96 µM
- minimal effective concentration [2]: 2.22 µM

SMILES: Cl.Nc1nc2cc3c1nc(O)n3Cc1ccc(F)c(c1)OCCCCCO2 [Compound 20]
- HEK293 TLR7-NFκB-luc (LEC; μM) [1]: 4.99 µM
- PBMC HEK-ISRE-luc (LEC; μM) [2]: 1.61 µM

SMILES: Nc1nc2cc3c1nc(O)n3Cc1ccc(F)c(c1)OC/C=C/CCO2 [Compound 21]
- HEK293 TLR7-NFκB-luc (LEC; μM) [1]: 0.9 µM
- minimal effective concentration [2]: 0.25 µM

SMILES: Cl.Nc1nc2cc3c1nc(O)n3Cc1ccc(F)c(c1)OC/C=C/CCO2 [Compound 22]
- HEK293 TLR7-NFκB-luc (LEC; μM) [1]: 1.83 µM
- PBMC HEK-ISRE-luc (LEC; μM) [2]: 0.39 µM

SMILES: Nc1nc2cc3c1nc(O)n3Cc1cccc(c1)NCCCCO2 [Compound 23]
- HEK293 TLR7-NFκB-luc (LEC; μM) [1]: 16.74 µM
- minimal effective concentration [2]: 8.98 µM

SMILES: Nc1nc2cc3c1nc(O)n3Cc1ccc(F)c(c1)OCCCCO2 [Compound 24]
- minimal effective concentration [2]: 2.14 µM

SMILES: Nc1nc2cc3c1nc(O)n3Cc1cccc(c1)OCC/C=C/CO2 [Compound 25]
- HEK293 TLR7-NFκB-luc (LEC; μM) [1]: 1.92 µM
- minimal effective concentration [2]: 0.53 µM

SMILES: Nc1nc2cc3c1nc(O)n3Cc1cccc(c1)NC/C=C/CCO2 [Compound 26]
- HEK293 TLR7-NFκB-luc (LEC; μM) [1]: 1.88 µM
- minimal effective concentration [2]: 0.37 µM

SMILES: Nc1nc2cc3c1nc(O)n3Cc1cc(F)cc(c1)OC/C=C/CCO2 [Compound 27]
- HEK293 TLR7-NFκB-luc (LEC; μM) [1]: 1.35 µM
- minimal effective concentration [2]: 0.14 µM
